{"source": "PubChem BioAssay AID280", "about": "(DTP/NCI, 2004)", "system": "nude mice, LOX melanoma ip, survival T/C", "experiment": "NCI In Vivo Anticancer Drug Screen. Data for tumor model Human Amelanotic Melanoma (LOX) (intraperitoneal) in NU/NU BALB/C (nude) mice", "details": "endpoint: median survival time, schedule: Q04DX003 (ip), higher = longer survival", "method": "The antitumor activity of compounds was measured in mice bearing transplantable tumors. Survival or tumor size were measured and the results are expressed as the measurement made in the treated group (T) divided by the measurement made in the vehicle treated control group (C). The tumor model used in this assay is Human Amelanotic Melanoma (LOX) (intraperitoneal) in NU/NU BALB/C (nude) mice", "key": {"[1]": {"details": "dose: 25.0 mg/kg/injection, vehicle: other"}, "[2]": {"details": "dose: 50.0 mg/kg/injection, vehicle: Klucel (hydroxypropylcellulose) (HPC)"}, "[3]": {"details": "dose: 100.0 mg/kg/injection, vehicle: Klucel (hydroxypropylcellulose) (HPC)"}, "[4]": {"details": "dose: 200.0 mg/kg/injection, vehicle: Klucel (hydroxypropylcellulose) (HPC)"}, "[5]": {"details": "dose: 400.0 mg/kg/injection, vehicle: Klucel (hydroxypropylcellulose) (HPC)"}, "[6]": {"details": "dose: 50.0 mg/kg/injection, vehicle: saline with Tween-80"}, "[7]": {"details": "dose: 100.0 mg/kg/injection, vehicle: saline with Tween-80"}}, "note": "Inconclusive results and toxic doses are left out."}
{"compound": "Cc1noc2nc(-c3ccccc3)cc(N3CCN(C)CC3)c12", "values": [{"measurement": "T/C", "setting": "[1]", "value": "97 % of control"}, {"measurement": "T/C", "setting": "dose: 54.0 mg/kg/injection, vehicle: other", "value": "97 % of control"}, {"measurement": "T/C", "setting": "dose: 100.0 mg/kg/injection, vehicle: other", "value": "97 % of control"}, {"measurement": "T/C", "setting": "dose: 200.0 mg/kg/injection, vehicle: other", "value": "93 % of control"}, {"measurement": "T/C", "setting": "dose: 400.0 mg/kg/injection, vehicle: other", "value": "98 % of control"}]}
{"compound": "COc1c2c(c(O)c3c4c(c(C)cc13)C1OC3(C(OC)OC5CC(C)(O)C(OC6CC(C)(O)C(O)C(C)O6)C(C)O5)OC1C(OC)(O4)C31CO1)C(=O)C(O)CC2OC1CC(C)(O)C(OC(C)=O)C(C)O1", "note": "(stereo not drawn)", "values": [{"measurement": "T/C", "setting": "dose: 12.5 micrograms/kg/injection, vehicle: saline", "value": "261 % of control"}, {"measurement": "T/C", "setting": "dose: 25.0 micrograms/kg/injection, vehicle: saline", "value": "181 % of control"}, {"measurement": "T/C", "setting": "dose: 50.0 micrograms/kg/injection, vehicle: saline", "value": "107 % of control"}]}
{"compound": "Nc1ncc(C2OC(CO)C(O)C2O)c(=O)[nH]1", "note": "(stereo not drawn)", "values": [{"measurement": "T/C", "setting": "dose: 62.5 mg/kg/injection, vehicle: saline", "value": "112 % of control"}, {"measurement": "T/C", "setting": "dose: 125.0 mg/kg/injection, vehicle: saline", "value": "109 % of control"}, {"measurement": "T/C", "setting": "dose: 250.0 mg/kg/injection, vehicle: saline", "value": "100 % of control"}]}
{"compound": "CC1=C(C(N)=O)C(c2ccccc2)NC(=S)N1", "note": "(stereo not drawn)", "values": [{"measurement": "T/C", "setting": "dose: 25.0 mg/kg/injection, vehicle: Klucel (hydroxypropylcellulose) (HPC)", "value": "96 % of control"}, {"measurement": "T/C", "setting": "[2]", "value": "98 % of control"}, {"measurement": "T/C", "setting": "[3]", "value": "97 % of control"}, {"measurement": "T/C", "setting": "[4]", "value": "95 % of control"}, {"measurement": "T/C", "setting": "[5]", "value": "86 % of control"}]}
{"compound": "NC(CNC(=O)CBr)C(=O)O", "note": "(stereo not drawn)", "values": [{"measurement": "T/C", "setting": "dose: 12.5 mg/kg/injection, vehicle: water", "value": "97 % of control"}, {"measurement": "T/C", "setting": "dose: 25.0 mg/kg/injection, vehicle: water", "value": "93 % of control"}, {"measurement": "T/C", "setting": "dose: 50.0 mg/kg/injection, vehicle: water", "value": "98 % of control"}, {"measurement": "T/C", "setting": "dose: 100.0 mg/kg/injection, vehicle: water", "value": "90 % of control"}, {"measurement": "T/C", "setting": "dose: 200.0 mg/kg/injection, vehicle: water", "value": "88 % of control"}]}
{"compound": "CCC1OC(OC)C=CC1=O", "note": "(stereo not drawn)", "values": [{"measurement": "T/C", "setting": "dose: 25.0 mg/kg/injection, vehicle: suspension in saline", "value": "96 % of control"}, {"measurement": "T/C", "setting": "dose: 50.0 mg/kg/injection, vehicle: suspension in saline", "value": "104 % of control"}, {"measurement": "T/C", "setting": "dose: 100.0 mg/kg/injection, vehicle: suspension in saline", "value": "113 % of control"}]}
{"compound": "CCCCOCN(COCCCC)C12CC3CC(CC(C3)C1)C2", "values": [{"measurement": "T/C", "setting": "[6]", "value": "106 % of control"}, {"measurement": "T/C", "setting": "[7]", "value": "97 % of control"}, {"measurement": "T/C", "setting": "dose: 200.0 mg/kg/injection, vehicle: saline with Tween-80", "value": "114 % of control"}, {"measurement": "T/C", "setting": "dose: 400.0 mg/kg/injection, vehicle: saline with Tween-80", "value": "120 % of control"}]}
{"compound": "O=C(NC(Cc1ccc(I)cc1)C(=O)O)c1ccc(Br)cc1", "note": "(stereo not drawn)", "values": [{"measurement": "T/C", "setting": "dose: 18.75 mg/kg/injection, vehicle: other", "value": "94 % of control"}, {"measurement": "T/C", "setting": "dose: 18.75 mg/kg/injection, vehicle: sodium bicarbonate", "value": "111 % of control"}, {"measurement": "T/C", "setting": "dose: 37.5 mg/kg/injection, vehicle: other", "value": "151 % of control"}, {"measurement": "T/C", "setting": "dose: 37.5 mg/kg/injection, vehicle: sodium bicarbonate", "value": "107 % of control"}, {"measurement": "T/C", "setting": "dose: 75.0 mg/kg/injection, vehicle: other", "value": "91 % of control"}, {"measurement": "T/C", "setting": "dose: 75.0 mg/kg/injection, vehicle: sodium bicarbonate", "value": "96 % of control"}, {"measurement": "T/C", "setting": "dose: 150.0 mg/kg/injection, vehicle: other", "value": "98 % of control"}, {"measurement": "T/C", "setting": "dose: 150.0 mg/kg/injection, vehicle: sodium bicarbonate", "value": "86 % of control"}, {"measurement": "T/C", "setting": "dose: 300.0 mg/kg/injection, vehicle: sodium bicarbonate", "value": "106 % of control"}]}
{"compound": "O=[N+]([O-])c1ccc(N(CCO)CCO)c2c1no[n+]2[O-]", "values": [{"measurement": "T/C", "setting": "dose: 6.25 mg/kg/injection, vehicle: saline with Tween-80", "value": "99 % of control"}, {"measurement": "T/C", "setting": "dose: 12.5 mg/kg/injection, vehicle: saline with Tween-80", "value": "106 % of control"}, {"measurement": "T/C", "setting": "dose: 25.0 mg/kg/injection, vehicle: saline with Tween-80", "value": "111 % of control"}, {"measurement": "T/C", "setting": "[6]", "value": "93 % of control"}, {"measurement": "T/C", "setting": "[7]", "value": "115 % of control"}]}
{"compound": "C/C(=N\\NC(=S)N1CCC1)c1ccccn1", "values": [{"measurement": "T/C", "setting": "dose: 3.13 mg/kg/injection, vehicle: other", "value": "99 % of control"}, {"measurement": "T/C", "setting": "dose: 6.25 mg/kg/injection, vehicle: other", "value": "96 % of control"}, {"measurement": "T/C", "setting": "dose: 12.5 mg/kg/injection, vehicle: other", "value": "95 % of control"}, {"measurement": "T/C", "setting": "[1]", "value": "100 % of control"}]}
{"compound": "O=C(NC(Cc1ccc(I)cc1)C(=O)O)c1cccc(Br)c1", "note": "(stereo not drawn)", "values": [{"measurement": "T/C", "setting": "[2]", "value": "112 % of control"}, {"measurement": "T/C", "setting": "dose: 75.0 mg/kg/injection, vehicle: Klucel (hydroxypropylcellulose) (HPC)", "value": "105 % of control"}, {"measurement": "T/C", "setting": "[3]", "value": "112 % of control"}, {"measurement": "T/C", "setting": "dose: 150.0 mg/kg/injection, vehicle: Klucel (hydroxypropylcellulose) (HPC)", "value": "89 % of control"}, {"measurement": "T/C", "setting": "[4]", "value": "103 % of control"}, {"measurement": "T/C", "setting": "dose: 300.0 mg/kg/injection, vehicle: Klucel (hydroxypropylcellulose) (HPC)", "value": "96 % of control"}, {"measurement": "T/C", "setting": "[5]", "value": "87 % of control"}]}
